Source: patent US20100092526A1, “NANOEMULSION THERAPEUTIC COMPOSITIONS AND METHODS OF USING THE SAME” (NanoBio Corporation, priority 2008, published 2010)
≈ marks a conversion by molar mass, not a printed value. Read-outs that look alike come from different tables or passages of the source.

Columns and labels:
[1] = tested on: Klebsiella pneumoniae; assay: MIC/MBC of nanoemulsions against gram-negative isolates (CLSI, alamar blue); format: cell-based; conditions: Klebsiella pneumoniae (n = 5)
[2] = tested on: Escherichia coli; assay: as above; format: cell-based; conditions: Escherichia coli (n = 5)
[3] = tested on: Proteus mirabilis; assay: as above; format: cell-based; conditions: Proteus mirabilis (n = 5)
[4] = tested on: Acinetobacter baumannii; assay: as above; format: cell-based; conditions: Acinetobacter baumannii (n = 5)
[5] = tested on: Pseudomonas aeruginosa; assay: as above; format: cell-based; conditions: Pseudomonas aeruginosa (n = 5)
[6] = tested on: Burkholderia cepacia; assay: as above; format: cell-based; conditions: Burkholderia cepacia (n = 5), nanoemulsions in the presence of 5 mM EDTA
[7] = tested on: Stenotrophomonas maltophilia; assay: as above; format: cell-based; conditions: Stenotrophomonas maltophilia (n = 5); nanoemulsions in the presence of 5 mM EDTA
[8] = tested on: P. aeruginosa, B. cenocepacia, A. baumannii and S. maltophilia; assay: MIC/MBC against all strains of Example 8; conditions: read-out: MBC90, against all strains
[9] = tested on: Pseudomonas aeruginosa; assay: MIC/MBC against CF isolates (CLSI, alamar blue); conditions: for MBC / MIC: Pseudomonas aeruginosa
[10] = tested on: Burkholderia cenocepacia; assay: MIC/MBC against CF isolates (CLSI, alamar blue); conditions: Burkholderia cenocepacia
[11] = tested on: Acinetobacter baumannii; assay: MIC/MBC against clinical isolates (CLSI, alamar blue); conditions: Acinetobacter baumannii
[12] = nanoemulsions in the presence of 5 mM EDTA

C[C@@H](O)[C@H]1C(=O)N2C(C(=O)O)=C(SCCN=CN)C[C@H]12 [Imipenem]
% resistant [1]: 0.0% | % susceptible [1]: 100.0% | MIC50 [1, 12]: 0.25 µg/mL | MIC Range [1, 12]: <=0.12-0.25 ^ | % resistant [2]: 0.0% | % susceptible [2]: 100.0% | MIC50 [2, 12]: 0.25 µg/mL | MIC Range [2, 12]: <=0.12-0.5 ^ | % resistant [3]: 0.0% | % susceptible [3]: 100.0% | MIC50 [3, 12]: 1 µg/mL | MIC Range [3, 12]: <=0.12-2 ^ | % resistant [4]: 20.0% | % susceptible [4]: 80.0% | MIC50 [4, 12]: ≤ 0.12 µg/mL | % resistant [5]: 20.0% | % susceptible [5]: 80.0% | MIC50 [5, 12]: 1 µg/mL | MIC50 [6]: 8 µg/mL | MIC Range ([6]; in µg/mL): 4-8 | MIC50 [7]: > 8 µg/mL | MBC [8]: > 32 µg/mL | MBC 90 ([9]; 20 CF Pseudomonas isolates): >32 µg/mL | MBC ([9]; CF Pseudomonas isolate NB1): 8 µg/mL (≈ 26.7 µM) | MIC ([9]; CF Pseudomonas isolate NB1): 1 µg/mL (≈ 3.34 µM) | MBC ([9]; CF Pseudomonas isolate NB2): 2 µg/mL (≈ 6.68 µM) | MIC ([9]; CF Pseudomonas isolate NB2): 2 µg/mL (≈ 6.68 µM) | MIC ([9]; CF Pseudomonas isolate NB3): 2 µg/mL (≈ 6.68 µM) | MBC ([9]; CF Pseudomonas isolate NB4): 8 µg/mL (≈ 26.7 µM) | MIC ([9]; CF Pseudomonas isolate NB5): 2 µg/mL (≈ 6.68 µM) | MBC ([9]; CF Pseudomonas isolate NB6): 2 µg/mL (≈ 6.68 µM) | MIC ([9]; CF Pseudomonas isolate NB6): 1 µg/mL (≈ 3.34 µM) | MBC ([9]; CF Pseudomonas isolate NB10): 8 µg/mL (≈ 26.7 µM) | MBC ([9]; CF Pseudomonas isolate NB11): 8 µg/mL (≈ 26.7 µM) | MIC ([9]; CF Pseudomonas isolate NB11): 2 µg/mL (≈ 6.68 µM) | MIC ([9]; CF Pseudomonas isolate NB13): 8 µg/mL (≈ 26.7 µM) | MIC ([9]; CF Pseudomonas isolate NB15): 8 µg/mL (≈ 26.7 µM) | MIC ([9]; CF Pseudomonas isolate NB16): 8 µg/mL (≈ 26.7 µM) | MIC ([9]; CF Pseudomonas isolate NB20): 2 µg/mL (≈ 6.68 µM) | MBC ([10]; CF Burkholderia isolate NB28b): 0.5 µg/mL (≈ 1.67 µM) | MIC ([10]; CF Burkholderia isolate NB28b): 0.5 µg/mL (≈ 1.67 µM) | MIC ([10]; CF Burkholderia isolate NB29): 8 µg/mL (≈ 26.7 µM) | MIC [11]: 0.125 µg/mL (≈ 0.418 µM) | MBC ([11]; Acinetobacter isolate NB31): 1 µg/mL (≈ 3.34 µM) | MIC ([11]; Acinetobacter isolate NB31): 1 µg/mL (≈ 3.34 µM) | MBC ([11]; Acinetobacter isolate NB35): 8 µg/mL (≈ 26.7 µM) | MIC ([11]; Acinetobacter isolate NB35): 8 µg/mL (≈ 26.7 µM) | MBC ([11]; Acinetobacter isolate NB36): 0.125 µg/mL (≈ 0.418 µM) | MBC ([11]; Acinetobacter isolate NB37): 8 µg/mL (≈ 26.7 µM) | MBC ([11]; Acinetobacter isolate NB39): 2 µg/mL (≈ 6.68 µM) | MIC ([11]; Acinetobacter isolate NB39): 2 µg/mL (≈ 6.68 µM) | MIC ([11]; Acinetobacter isolate NB40): 2 µg/mL (≈ 6.68 µM) | MBC ([11]; read-out: MBC 50, 10 Acinetobacter isolates): 8 µg/mL (≈ 26.7 µM)
